The values that follow come from ChEMBL document CHEMBL1201862, “PubChem BioAssay data set” (2004).

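Compound exposure: 48 hours, 5 concentrations, 96-well plates. GI50 is the concentration that inhibits growth by half.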 The source made the active and inactive calls. No stated cut-off is given here; in the data, active = GI50 up to about 1.1 µM and inactive = higher. Some results are limits rather than exact numbers.

Experiment in all cases: growth of human tumour cells (NCI), 48 h
Assay [1] deals with DU-145.
Assay [2] deals with HCT-116.
Assay [3] relates to Hs-578T.
In assay [4] the test system is MCF7.
For assay [5], the system named is MDA-MB-231.
In assay [6] the test system is MDA-N.
Assay [7] concerns NCI-H23.
Assay [8] deals with NCI-H460.
For assay [9], the system named is NCI-H522.
Assay [10] deals with OVCAR-4.
Assay [11] concerns OVCAR-8.
In assay [12] the test system is RPMI-8226.
Assay [13] relates to RXF 393.
Assay [14] has as its system SF-295.
Assay [15] deals with SK-OV-3.
The subject of assay [16] is SR.
In assay [17] the test system is SW-620.
The test system of assay [18] is T47D.
The test system of assay [19] is TK-10.
The test system of assay [20] is EKVX.

As for `CC(=O)N1N=C(c2ccc3ccccc3c2O)CC1c1ccc(Cl)cc1Cl` (configuration not stated), the GI50 in [1] was > 100 µM (inactive); in assay [2] it was 16.7 µM (inactive); in assay [3], 39.1 µM (inactive); in assay [4], 13.2 µM (inactive); in [5], 26.7 µM (inactive); in [6], 24.4 µM (inactive). Moreover, the GI50 in assay [7] was > 100 µM (inactive); in [8], 12.3 µM (inactive); in assay [9], 25.7 µM (inactive); in assay [10], 33.1 µM (inactive); in [11], 59 µM (inactive); in assay [12], 17.3 µM (inactive). The GI50 was 30.3 µM (inactive) in assay [13]; 31.6 µM (inactive) in assay [14]; > 100 µM (inactive) in assay [15]; 5.21 µM (inactive) in [16]; 26.9 µM (inactive) in assay [17]; 26.9 µM (inactive) in assay [18]. Further, in assay [19], the GI50 is 52.7 µM (inactive).
As for `COc1cc(OC)c(OC)cc1/C=C1\C=Cc2ccccc21`, the GI50 in assay [1] was 28.8 µM (inactive); in assay [20], 19.2 µM (inactive); in assay [2], 5.65 µM (inactive); in [3], 22.9 µM (inactive); in assay [4], 12.1 µM (inactive); in assay [5], 12.6 µM (inactive). In addition, the GI50 is 9.18 µM (inactive) in assay [6]; 18.8 µM (inactive) in [7]; 10.3 µM (inactive) in [8]; 12.1 µM (inactive) in assay [9]; 31.7 µM (inactive) in assay [11]; 10.8 µM (inactive) in [12]. Moreover, the GI50 in assay [13] was 11.4 µM (inactive); in assay [14], 18.5 µM (inactive); in [15], 19.7 µM (inactive); in assay [16] it was 5.04 µM (inactive); in assay [17] it was 11.1 µM (inactive); in [18], 7.89 µM (inactive). In addition, the GI50 in assay [19] is 17.3 µM (inactive).
With `CCOC1CC(=O)c2c(Br)sc(Br)c21` (configuration not stated), the GI50 in [1] is 18 µM (inactive); in assay [20] it was 21.7 µM (inactive); in assay [2], 21.2 µM (inactive); in assay [3], 37.8 µM (inactive); in [4], 21.2 µM (inactive); in [5] it was 19.5 µM (inactive). In addition, the GI50 in [6] is 22.3 µM (inactive); in [7] it was 17.9 µM (inactive); in assay [8] it was 20.7 µM (inactive); in assay [9] it was 28.5 µM (inactive); in assay [11], 17.5 µM (inactive); in [12], 17.9 µM (inactive). Also, the GI50 in assay [13] was 18.5 µM (inactive); in [14], 27.9 µM (inactive); in [15], 16.5 µM (inactive); in assay [16], 21.7 µM (inactive); in [17], 20 µM (inactive); in [18] it was 19.9 µM (inactive). The GI50 in assay [19] was 20.7 µM (inactive).
Turning to `CCCSc1cc(Cl)c(C)cc1S(=O)(=O)n1ccnc1O`, the GI50 in [1], in assay [20], in assay [2], in assay [3], in assay [4] and in assay [5] was > 100 µM (inactive) throughout. The GI50 in assay [6], in [7], in assay [8], in assay [9], in assay [10] and in [11] was > 100 µM (inactive) throughout. Further, the GI50 in assay [13], in assay [14], in assay [15], in [16], in assay [17] and in [18] was > 100 µM (inactive) in each case. Also, the GI50 in assay [19] was > 100 µM (inactive).
On to `NC1=Nc2ccccc2Sc2nc3ccccc3n21`, for which the GI50 is 39.6 µM (inactive) in assay [1]; 5.47 µM (inactive) in assay [2]; 55.7 µM (inactive) in assay [3]; 5.53 µM (inactive) in [4]; 19.1 µM (inactive) in assay [5]; 5.13 µM (inactive) in assay [6]. The GI50 was 25.5 µM (inactive) in assay [7]; 17.2 µM (inactive) in assay [8]; 13.9 µM (inactive) in assay [9]; 7.85 µM (inactive) in assay [10]; 4.46 µM (inactive) in [12]; 19.4 µM (inactive) in assay [13]. The GI50 in assay [14] is 43.3 µM (inactive); in assay [15] it was 17.1 µM (inactive); in assay [16], 4.49 µM (inactive); in assay [17], 46.1 µM (inactive); in assay [18], 21.6 µM (inactive); in [19] it was > 100 µM (inactive).
For the compound `COc1cc(OCc2ccc3oc(=O)c(-c4ccccc4)nc3c2)cc(OC)c1OC`, the GI50 in assay [1], in assay [2], in assay [3], in assay [4], in assay [5] and in [6] was > 100 µM (inactive) in each case. In addition, the GI50 in [7], in assay [8], in assay [9], in [10], in assay [11] and in assay [12] was > 100 µM (inactive) in each case. The GI50 is > 100 µM (inactive) in assay [13]; > 100 µM (inactive) in [14]; > 100 µM (inactive) in assay [15]; > 100 µM (inactive) in assay [16]; > 100 µM (inactive) in [17]; 38.9 µM (inactive) in [18]. In [19], the GI50 is > 100 µM (inactive).
`NC(=S)N/N=C1/CCCC2CCCC[C@@H]12` (some centres not stated): the GI50 in assay [1] was > 100 µM (inactive); in assay [20] it was 35 µM (inactive); in [3], 76.4 µM (inactive); in [4], > 100 µM (inactive); in [5], > 100 µM (inactive); in assay [6], > 100 µM (inactive). Further, the GI50 is > 100 µM (inactive) in assay [7]; > 100 µM (inactive) in assay [8]; 80.4 µM (inactive) in [9]; > 100 µM (inactive) in assay [10]; > 100 µM (inactive) in assay [11]; > 100 µM (inactive) in [12]. Further, the GI50 was > 100 µM (inactive) in assay [13]; > 100 µM (inactive) in assay [14]; > 100 µM (inactive) in [15]; > 100 µM (inactive) in [16]; > 100 µM (inactive) in assay [17]; 37.4 µM (inactive) in assay [18]. Moreover, in [19], the GI50 is > 100 µM (inactive).
Take `CN(C)c1ccc(/C=C/C(=O)N[C@@H]2C(=O)N3[C@@H]2SC(C)(C)[C@@H]3C(=O)O)cc1`: the GI50 in [1] is > 100 µM (inactive); in assay [20] it was > 100 µM (inactive); in [2] it was 58.9 µM (inactive); in assay [3], > 100 µM (inactive); in assay [4], > 100 µM (inactive); in assay [5] it was > 100 µM (inactive). Moreover, the GI50 in [6], in assay [7], in assay [8], in assay [9], in assay [10] and in [11] was > 100 µM (inactive) each time. Also, the GI50 in assay [12], in assay [13], in assay [14], in assay [16], in assay [17] and in assay [18] was > 100 µM (inactive) throughout. For the same compound, the GI50 in assay [19] was > 100 µM (inactive).
Regarding `OC1CC(O)c2c(Cl)sc(Cl)c21` (configuration not stated), the GI50 in [1] was 43.4 µM (inactive); in [20], 5.21 µM (inactive); in assay [2], 31.4 µM (inactive); in assay [3] it was 36 µM (inactive); in assay [4], 31.1 µM (inactive); in assay [5], 32.1 µM (inactive). The GI50 was > 100 µM (inactive) in assay [6]; 21.2 µM (inactive) in assay [7]; 21.8 µM (inactive) in assay [8]; 23 µM (inactive) in assay [9]; 8.79 µM (inactive) in assay [10]; 41.5 µM (inactive) in assay [11]. The GI50 is < 0.01 µM (active) in assay [13]; 8.41 µM (inactive) in assay [14]; 27.4 µM (inactive) in [15]; > 100 µM (inactive) in assay [16]; 44.2 µM (inactive) in [17]; 26.9 µM (inactive) in assay [18]. In addition, the GI50 in assay [19] is 36 µM (inactive).
As to `O=c1[nH]c(=O)n(C/C=C/CBr)nc1Br`, the GI50 was > 100 µM (inactive) in assay [1]; 15.1 µM (inactive) in [20]; 13 µM (inactive) in assay [2]; 19 µM (inactive) in [3]; 10.1 µM (inactive) in assay [4]; 3.49 µM (inactive) in assay [5]. Also, the GI50 in assay [6] was 14.1 µM (inactive); in assay [7], 12.6 µM (inactive); in assay [8], 17.5 µM (inactive); in assay [9] it was 4.33 µM (inactive); in [10], 10.4 µM (inactive); in assay [11], 14.5 µM (inactive). For the same compound, the GI50 in [12] is 4.08 µM (inactive); in assay [13] it was 12 µM (inactive); in assay [14], 17.2 µM (inactive); in assay [16], 3.08 µM (inactive); in [17], 14.4 µM (inactive); in assay [18] it was 12.6 µM (inactive). For the same compound, the GI50 in assay [19] was 17.7 µM (inactive).
For `O=C(c1ccco1)C1CC(c2ccc3ccccc3c2O)=NN1c1ccc([N+](=O)[O-])cc1[N+](=O)[O-]` (configuration not stated), the GI50 in [1] is 37.6 µM (inactive); in assay [2] it was 23.1 µM (inactive); in [3], 15.7 µM (inactive); in assay [4], 12.8 µM (inactive); in assay [5], 20.7 µM (inactive); in [6], 28.6 µM (inactive). Also, the GI50 in assay [7] was 22.7 µM (inactive); in assay [8] it was 10.5 µM (inactive); in assay [9] it was 7.98 µM (inactive); in [10], 15.6 µM (inactive); in assay [11], 23.8 µM (inactive); in assay [13], 29.9 µM (inactive). Further, the GI50 was 18.1 µM (inactive) in assay [14]; 28.1 µM (inactive) in [15]; 1.01 µM (active) in assay [16]; 34.5 µM (inactive) in assay [17]; 31.9 µM (inactive) in assay [18]; 30 µM (inactive) in [19].
